The values below are quoted from earlier work in patent publication US20160280572A1, “POLYMERS FOR FLOCCULATION, DEWATERING AND CONSOLIDATION OF OIL SANDS FLUID FINE TAILINGS, MINE TAILINGS AND SOLID PARTICULATE SUSPENSIONS” (THE GOVERNORS OF THE UNIVERSITY OF ALBERTA, priority 2015, published 2016).

Broadly, the Solubility is how much of the substance goes into solution per volume.

Converted amounts (≈) assume the structure as drawn.

For the first data set the following is noted: in water, 20 Celsius.
For the compound `C=CC#N` [Acrylonitrile], the Solubility is 70 mg/mL (≈ 1320 mM).
Turning to `C=C(C)C(N)=O` [Methacrylamide], the Solubility is 202 mg/mL (≈ 2370 mM).
For the compound `C=CC(=O)OC` [methyl acrylate], the Solubility was 60 mg/mL (≈ 697 mM).
Consider `C=C(C)C(=O)OC` [methyl methacrylate], for which the Solubility is 16 mg/mL (≈ 160 mM).
As for `C=Cc1ccccc1` [styrene], the Solubility is 0.3 mg/mL (≈ 2.88 mM).
For the compound `C=COC(C)=O` [vinyl acetate], the Solubility is 25 mg/mL.

Still in this data set, the particulars now being: in water, temperature Not Listed.
For `C=C(C)C(=O)OCCCC` [butyl methacrylate], the Solubility was 6 mg/mL (≈ 42.2 mM).
